Measured values from patent US20230202989A1, “COMPOUNDS” (JANSSEN PHARMACEUTICA NV, priority 2020, published 2023).
Where two headings read alike, the source gives them in different places.

Legend:
[1] = system: TNF; assay: PBMC assay: TNF cytokine levels after LPS stimulation (MSD); type: cell-based; details: human PBMCs, 100 ng/ml LPS for 6 hrs
Method in brief: (§1)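 Cryopreserved human PBMCs (7.5×10^4/well) in RPMI/10% FBS were preincubated with serially diluted compound for 30 min at 37 °C, then stimulated with 100 ng/ml LPS for 6 h. Supernatant IL-1β and TNF measured by MSD. IC50 derived for IL-1β, EC50 for TNF.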

[2] = system: IL-1β; assay: PBMC assay: inhibition of IL-1β release after LPS stimulation (MSD); type: cell-based; details: human PBMCs, 100 ng/ml LPS for 6 hrs, MSD, 96 well plates, read-out: IL1β IC50
Method in brief: as §1

| SMILES | EC50 ([1]; Homo sapiens, PBMC, 6 h) [µM] | IC50 ([2]; Homo sapiens, PBMC, 6 h) [µM] | IC50 [2] [µM] | EC50 [1] [µM] |
| --- | --- | --- | --- | --- |
| CC(C)c1nn(CC(=O)N[C@@H]2CCCN(C3CC3)C2)c(=O)c2ccc(C(F)(F)F)cc12 [Final Cpd X10] | > 20 | 0.092 | – | – |
| CC[C@@H](C)c1nn(CC(=O)Nc2ccc3nncn3c2)c(=O)c2ccc(C(F)(F)F)cc12 (single isomer, unassigned) [Final Cpd X12] | > 20 | 0.113 | – | – |
| CC(=O)c1nn(CC(=O)Nc2ccn(C(C)C)n2)c(=O)c2ccc(Br)cc12 [X-1014, 2-(4-acetyl-6-bromo-1-oxophthalazin-2(1H)-yl)-N-(1-isopropyl-1H-pyrazol-3-yl)acetamide] | > 20 | > 20 | – | – |
| COC(C)c1nn(CC(=O)N[C@H]2C[C@@](C)(O)C2)c(=O)c2ccc(C(F)(F)F)cc12 (some centres unmarked) [Final Cpd X107] | > 20 | 1.61 | – | – |
| C[C@]1(O)C[C@@H](NC(=O)Cn2nc(C3CC3)c3cc(C(F)(F)F)ccc3c2=O)C1 [Final Cpd X4] | > 20 | 0.06 | – | – |
| CC(C)c1nn(CC(=O)Nc2ccc(I)nn2)c(=O)c2ccc(C(F)(F)F)cc12 [Final Cpd X154] | > 20 | 3.09 | – | – |
| CO[C@]1(C)C[C@H](NC(=O)Cn2nc(C(C)C)c3cc(Br)ccc3c2=O)C1 [X-1088] | > 20 | 0.196 | – | – |
| CC(C)c1nn(CC(=O)N[C@H]2CC[C@@](C)(O)CC2)c(=O)c2ccc(C(F)(F)F)cc12 [Final Cpd X46] | > 20 | 0.388 | – | – |
| CC(C)c1nn(CC(=O)N[C@H]2C[C@@](C)(O)C2)c(=O)c2ccc(C(F)(F)F)c(F)c12 [Final Cpd X17] | > 20 | 0.147 | – | – |
| CC(C)c1nn(CC(=O)N[C@H]2C[C@@](C)(O)C2)c(=O)c2ccc(C3CC3(F)F)cc12 (some centres unmarked) [X-1068] | > 20 | 2.8 | – | – |
| CC(C)c1nn(CC(=O)Nc2ccc(C(F)(F)F)nn2)c(=O)c2ccc(C(F)(F)F)cc12 [Final Cpd X161] | > 20 | 14.2 | – | – |
| COC(C)c1ccc2c(=O)n(CC(=O)N[C@H]3C[C@@](C)(O)C3)nc(C(C)C)c2c1 (some centres unmarked) [X-1055] | > 20 | 2.13 | – | – |
| CC(C)c1nn(CC(=O)Nc2ccc3nnc(C(F)(F)F)n3n2)c(=O)c2ccc(C(F)(F)F)cc12 [Final Cpd X87] | > 20 | 0.916 | – | – |
| CC(C)c1nn(CC(=O)Nc2ccn3ccnc3c2)c(=O)c2ccc(C(F)(F)F)cc12 [Final Cpd X54] | > 20 | 0.451 | – | – |
| CCN1CCCC(NC(=O)Cn2nc(C(C)C)c3cc(C(F)(F)F)ccc3c2=O)C1=O (centres unmarked) [Final Cpd X152] | > 20 | 7.5 | – | – |
| CC(C)c1nn(CC(=O)N[C@@H]2CCCC[C@H]2O)c(=O)c2ccc(C(F)(F)F)cc12 [Final Cpd X98] | > 20 | 1.15 | – | – |
| CC(C)c1nn(CC(=O)N[C@@H]2COC[C@H](O)C2)c(=O)c2ccc(C(F)(F)F)cc12 (mixture of isomers) [Final Cpd X157] | > 20 | 9.81 | – | – |

| SMILES | EC50 ([1]; Homo sapiens, PBMC, 6 h) [µM] | IC50 ([2]; Homo sapiens, PBMC, 6 h) [µM] | IC50 [2] [µM] | EC50 [1] [µM] |
| --- | --- | --- | --- | --- |
| Cc1nnc2n1C[C@H](NC(=O)Cn1nc(C(C)C)c3cc(C(F)(F)F)ccc3c1=O)CC2 (single isomer, unassigned) [Final Cpd X163] | > 20 | 15.1 | – | – |
| Cc1cc(NC(=O)Cn2nc(C(C)C)c3cc(C(F)(F)F)ccc3c2=O)nn(C)c1=O [Final Cpd X51] | > 20 | 0.44 | – | – |
| CC(C)c1nn(CC(=O)N[C@H]2CN(C3CC3)CC[C@H]2O)c(=O)c2ccc(C(F)(F)F)cc12 [Final Cpd X15, N-((3S,4R)-1-cyclopropyl-4-hydroxypiperidin-3-yl)-2-(4-isopropyl-1-oxo-6-(trifluoromethyl)phthalazin-2(1H)-yl)acetamide] | > 20 | 0.122 | – | – |
| CC(C)c1nn(CC(=O)Nc2nc(Cl)c3nc[nH]c3n2)c(=O)c2ccc(C(F)(F)F)cc12 [Final Cpd X11, N-(6-chloro-9H-purin-2-yl)-2-(4-isopropyl-1-oxo-6-(trifluoromethyl)phthalazin-2(1H)-yl)acetamide] | > 20 | 0.105 | – | – |
| CC(C)c1nn(CC(=O)N[C@H]2C[C@](O)(C(F)(F)F)C2)c(=O)c2ccc(C(F)(F)F)cc12 [Final Cpd X35] | > 20 | – | 0.303 | – |
| O=C(Cn1nc(C(F)F)c2cc(C(F)(F)F)ccc2c1=O)Nc1ccc2nncn2c1 [Final Cpd X32] | > 20 | 0.235 | – | – |
| CC(C)c1nn(CC(=O)Nc2cn3cnnc3cn2)c(=O)c2ccc(C(C)(F)F)cc12 [X-1085] | > 20 | 0.143 | – | – |
| CCN1CC[C@@H](NC(=O)Cn2nc(C(C)C)c3cc(C(F)(F)F)ccc3c2=O)[C@H](O)C1 (single isomer, unassigned) [Final Cpd X140] | > 20 | 4.61 | – | – |
| CC(C)c1nn(CC(=O)Nc2cc(C(F)(F)F)ncn2)c(=O)c2ccc(C(F)(F)F)cc12 [Final Cpd X178] | > 20 | > 20 | – | – |
| COc1ccc2c(=O)n(CC(=O)Nc3ccncn3)nc(C(C)C)c2c1 [X-1025] | – | – | 2.52 | > 20 |
| CC(C)c1nn(CC(=O)N[C@H]2CN(CC[C@H](C)O)CC[C@H]2O)c(=O)c2ccc(C(F)(F)F)cc12 [Final Cpd X81] | > 20 | 0.879 | – | – |
| CC(C)c1nn(CC(=O)N[C@@H]2CC[C@@H]2O)c(=O)c2ccc(C(F)(F)F)cc12 [Final Cpd X115] | – | – | 2.02 | > 20 |
| CCN1CCC[C@H](NC(=O)Cn2nc(C(C)C)c3cc(Br)ccc3c2=O)C1 (stereo in doubt) [X-1032] | > 20 | 0.031 | – | – |
| CC(C)c1nn(CC(=O)N[C@H]2CN(CC[C@@H](C)O)CC[C@H]2O)c(=O)c2ccc(C(F)(F)F)cc12 [Final Cpd X70] | > 20 | 0.74 | – | – |
| CC(C)c1nn(CC(=O)N[C@H]2C[C@](O)(C(F)(F)F)C2)c(=O)c2ccc(C(F)(F)F)cc12 [Final Cpd X65] | – | – | 0.668 | > 20 |
| Cc1cc(NC(=O)Cn2nc(C(C)C)c3cc(C(F)(F)F)ccc3c2=O)cn2cnnc12 [Final Cpd X28, 2-(4-isopropyl-1-oxo-6-(trifluoromethyl)phthalazin-2(1H)-yl)-N-(8-methyl-[1,2,4]triazolo[4,3-a]pyridin-6-yl)acetamide] | > 20 | 0.193 | – | – |

The remaining lines, values ahead:

| EC50 ([1]; Homo sapiens, PBMC, 6 h) [µM] | IC50 ([2]; Homo sapiens, PBMC, 6 h) [µM] | IC50 [2] [µM] | EC50 [1] [µM] | SMILES |
| --- | --- | --- | --- | --- |
| > 20 | 0.233 | – | – | CC(C)c1nn(CC(=O)Nc2ccc3nccn3c2)c(=O)c2ccc(C(F)(F)F)cc12 [Final Cpd X31] |
| > 20 | 0.804 | – | – | Cc1c(NC(=O)Cn2nc(C(C)C)c3cc(C(F)(F)F)ccc3c2=O)ccc2nccn12 [Final Cpd X74] |
| > 20 | 0.122 | – | – | O=C(Cn1nc(C(F)F)c2cc(Br)ccc2c1=O)Nc1ccc2nncn2n1 [X-1000] |
| 18.6 | 0.539 | – | – | COC(C)c1ccc2c(=O)n(CC(=O)Nc3ccc4nncn4c3)nc(C(C)C)c2c1 (centres unmarked) [X-1054] |
| > 10 | < 0.025 | – | – | CC(C)c1nn(CC(=O)N[C@H]2C[C@@](C)(O)C2)c(=O)c2ccc(Br)cc12 [Final Cpd 37] |
| 6.78 | 0.156 | – | – | CC(C)c1nn(CC(=O)Nc2ccc(=O)n(C)c2)c(=O)c2ccc(C(C)(F)F)cc12 [X-1066] |
| > 20 | 1.73 | – | – | CC(C)c1nn(CC(=O)Nc2ccn(C)c(=O)n2)c(=O)c2ccc(C(F)(F)F)cc12 [Final Cpd X112] |
| 14.1 | 1.14 | – | – | CC(C)c1nn(CC(=O)Nc2ccc3nncn3c2)c(=O)c2ccc(C3CC3(F)F)cc12 (centres unmarked) [X-1069] |
| > 10 | < 0.025 | – | – | CC(C)c1nn(CC(=O)Nc2ccncn2)c(=O)c2ccc(Br)cc12 [Final Cpd 38] |
| > 10 | 0.29 | – | – | CCc1nn(CC(=O)N[C@H]2C[C@@](C)(O)C2)c(=O)c2ccc(C3CC3)cc12 [Final Cpd 21] |
| 4.01 | 0.051 | – | – | CC(C)c1nn(CC(=O)Nc2ccc3nncn3n2)c(=O)c2ccc(C(F)(F)F)c(F)c12 [Final Cpd X3] |
| > 10 | 0.34 | – | – | CCc1ccc2c(=O)n(CC(=O)N[C@H]3C[C@@](C)(O)C3)nc(CC)c2c1 [Final Cpd 22] |
| > 10 | 0.54 | – | – | CCc1nn(CC(=O)N[C@H]2C[C@@](C)(O)C2)c(=O)c2ccc(C(F)F)cc12 [Final Cpd 17] |
| 13.2 | 0.175 | – | – | CC(C)c1nn(CC(=O)Nc2ccc3nccn3c2)c(=O)c2ccc(C(C)(F)F)cc12 [X-1067] |
| > 10 | 0.24 | – | – | CCc1nn(CC(=O)N[C@H]2C[C@@](C)(O)C2)c(=O)c2ccc(C(C)C)cc12 [Final Cpd 20] |
| 15 | 0.353 | – | – | CC(C)c1nn(CC(=O)N[C@H]2CC[C@@H](O)CC2)c(=O)c2ccc(C(F)(F)F)cc12 [Final Cpd X42] |
| 15.4 | 0.058 | – | – | CC(C)c1nn(CC(=O)N[C@H]2C[C@@](C)(O)C2)c(=O)c2ccc(C(F)(F)F)cc12 [Final Cpd 25] |
| 7.02 | 0.106 | – | – | CC(C)c1nn(CC(=O)Nc2ccc3nncn3n2)c(=O)c2ccc(C(C)(C)C)cc12 [X-1051] |
| > 10 | 0.19 | – | – | CCc1nn(CC(=O)Nc2ccncn2)c(=O)c2ccc(Br)cc12 [Final Cpd 2, 2-(6-bromo-4-ethyl-1-oxo-phthalazin-2-yl)-N-pyrimidin-4-yl-acetamide] |
| 13.7 | 0.076 | – | – | CC(C)c1nn(CC(=O)Nc2ccc3nncn3c2)c(=O)c2ccc(C(F)(F)F)cc12 [Final Cpd 8] |
| > 10 | < 0.12 | – | – | CC(C)c1ccc2c(=O)n(CC(=O)N[C@H]3C[C@@](C)(O)C3)nc(C(C)C)c2c1 [Final Cpd 34] |
| 9.7 | 0.4 | – | – | CC(C)c1nn(CC(=O)Nc2ccc3nnn(C)c3c2)c(=O)c2ccc(C(F)(F)F)cc12 [Final Cpd X49] |
